According to publication PMC2594009 (Structure (London, England : 1993), 2008):
Where “and” joins values, the source holds several entries; their conditions need not be identical. Equal entries are not always repeated. Entries after “also recorded” stand apart in the source; their conditions may differ.

Key:
L26F AM2 = assay type: cell-based, influenza A virus; settings: pH 5.5
S31N AM2 = assay type: cell-based, influenza A virus; settings: pH 5.5

NC12CC3CC(CC(C3)C1)C2 [amantadine]
inhibition of the inward current (L26F AM2): 47% and 46.8 ± 0.7%
reversibility of inhibition after removal of the drug (L26F AM2): reversibly inhibited; also recorded: readily reversible
inhibition of the inward current (S31N AM2): 30% and 30.7 ± 1.8%
reversibility of inhibition after removal of the drug (S31N AM2): immediately reversed; also recorded: highly reversible
